Target: T1, RORc ligand binding domain (Homo sapiens, UniProt P51449)
T1 sequence (P51449 269-508 limits assumed): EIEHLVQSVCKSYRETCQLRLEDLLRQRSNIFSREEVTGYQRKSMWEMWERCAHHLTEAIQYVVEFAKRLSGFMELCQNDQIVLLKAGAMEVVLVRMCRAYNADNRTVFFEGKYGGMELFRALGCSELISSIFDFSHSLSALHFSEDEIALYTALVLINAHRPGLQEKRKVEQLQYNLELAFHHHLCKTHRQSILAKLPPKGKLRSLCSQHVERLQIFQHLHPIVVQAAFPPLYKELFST
Test: In vitro RORc ligand binding assay (25-[3H]hydroxycholesterol displacement)

IC50 [nM] | Compound
50.7 | C[C@H]1CC[C@H](c2ccccc2)S(=O)(=O)N1Cc1cc(F)c(C2(NC(=O)c3c[nH]cn3)COC2)cc1F (stereo in doubt) [Example 134, N-[3-[2,5-difluoro-4-[[(3S,6R)-3-methyl-1,1-dioxo-6-phenyl-thiazinan-2-yl]methyl]phenyl]oxetan-3-yl]-1H-imidazole-4-carboxamide]
10.1 | C[C@H]1CC[C@H](c2ccccc2)S(=O)(=O)N1Cc1ccc(C2(NCc3ncc[nH]3)CCOCC2)cc1F [Example 64, 4-[3-fluoro-4-[[(3S,6R)-3-methyl-1,1-dioxo-6-phenyl-thiazinan-2-yl]methyl]phenyl]-N-(1H-imidazol-2-ylmethyl)tetrahydropyran-4-amine]
67.6 | C[C@H]1CC[C@H](c2ccccc2)S(=O)(=O)N1Cc1cc(F)c(C2(N3C[C@H](CO)OC3=O)CCOCC2)cc1F [Example 98, (5R)-3-[4-[2,5-difluoro-4-[[(3S,6R)-3-methyl-1,1-dioxo-6-phenyl-thiazinan-2-yl]methyl]phenyl]tetrahydropyran-4-yl]-5-(hydroxymethyl)oxazolidin-2-one]
299 | C[C@H]1CC[C@H](c2ccccc2)S(=O)(=O)N1Cc1ccc(C2(C(=O)Nc3ncnn3C)CCOCC2)cc1F [Example 7]
